Results published in article PMC6811774, “Potent, selective, and subunit‐dependent activation of TRPC5 channels by a xanthine derivative” (British Journal of Pharmacology, 2019).
Where “and” joins values, the source holds several entries; their conditions need not be identical. Equal values may be shown once. Read-outs that look alike come from different tables or passages of the source.

Biological target: T1, TRPC5:C5 channels (hTRPC5) (Homo sapiens, UniProt Q9UL62)
T1 construct: expressed in transfected cells
T1 sequence (Q9UL62 1-973): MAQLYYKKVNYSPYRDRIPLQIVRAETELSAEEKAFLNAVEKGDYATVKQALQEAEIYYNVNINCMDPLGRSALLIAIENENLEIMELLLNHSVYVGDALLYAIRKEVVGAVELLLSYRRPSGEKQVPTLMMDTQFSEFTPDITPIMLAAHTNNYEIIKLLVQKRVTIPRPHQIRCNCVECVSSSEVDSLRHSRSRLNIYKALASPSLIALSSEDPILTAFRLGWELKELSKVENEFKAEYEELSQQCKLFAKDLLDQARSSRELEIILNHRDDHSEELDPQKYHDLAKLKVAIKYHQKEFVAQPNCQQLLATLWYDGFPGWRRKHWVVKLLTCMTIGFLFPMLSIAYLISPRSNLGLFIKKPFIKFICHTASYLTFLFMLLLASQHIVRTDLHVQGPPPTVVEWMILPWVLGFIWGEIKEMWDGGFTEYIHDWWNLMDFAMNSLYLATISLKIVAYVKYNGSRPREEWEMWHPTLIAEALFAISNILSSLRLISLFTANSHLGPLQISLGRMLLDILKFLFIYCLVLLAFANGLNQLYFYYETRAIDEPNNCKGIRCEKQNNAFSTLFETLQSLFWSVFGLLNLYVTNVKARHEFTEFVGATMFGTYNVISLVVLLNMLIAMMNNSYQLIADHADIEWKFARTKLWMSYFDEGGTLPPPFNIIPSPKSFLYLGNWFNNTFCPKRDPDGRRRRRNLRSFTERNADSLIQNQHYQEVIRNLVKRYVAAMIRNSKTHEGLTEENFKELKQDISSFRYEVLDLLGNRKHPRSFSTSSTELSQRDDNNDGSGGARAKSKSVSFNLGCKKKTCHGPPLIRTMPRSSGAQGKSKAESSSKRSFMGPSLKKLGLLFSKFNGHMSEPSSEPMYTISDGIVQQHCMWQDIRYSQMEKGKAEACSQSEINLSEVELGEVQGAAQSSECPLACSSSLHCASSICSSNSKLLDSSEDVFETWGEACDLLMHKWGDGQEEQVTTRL
Assay: [Ca2+]i measurement (Fura-2, FlexStation) in (Tet+) HEK T-REx cells expressing hTRPC5
Format: cell-based
Procedure: HEK T‐REx™ cell line was transfected with TRPC5‐SYFP2 or TRPC4‐SYFP2 using FuGENE® HD transfection reagent. After 48 hr, cells were put under antibiotic selection using 400 μg·ml^−1 zeocin and 10 μg·ml^−1 blasticidin S (Invivogen, San Diego, California, USA). Medium changes were carried out regularly to remove dead cells. HEK T‐REx cells expressing tetracycline‐inducible human TRPC5, TRPC4–C1, and TRPC5–C1 were created as described previously (Akbulut et al., 2015; Ludlow et al., 2017; Rubaiy, Ludlow, Henrot, et al., 2017). TRPC5–C1 and TRPC4–C1 concatemers allow expression of functional channels with defined 2:2 stoichiometry that display ion permeability and current–voltage relationships distinct from those of homomeric TRPC4:C4 or TRPC5:C5 channels and consistent with those obtained upon co‐expression of TRPC1 with TRPC4 or TRPC5 (Ludlow et al., 2017; Rubaiy, Ludlow, Bon, & Beech, 2017; Rubaiy, Ludlow, Henrot, et al., 2017). Cells were cultured in DMEM‐F12 GlutaMAX (Invitrogen, Paisley, UK) containing 10% FBS (Sigma‐Aldrich, Gillingham, UK), with the addition of blasticidin (10 μg·ml^−1) and zeocin (400 μg·ml^−1) to maintain the stable incorporation of the tetracycline repressor and the channel of interest, respectively. Expression of proteins was induced by the addition of tetracycline (1 μg·ml^−1, 24 hr). Cells were maintained in a humidified incubator with 5% CO2 at 37°C. HEK 293 cells stably expressing tetracycline‐regulated human http://www.guidetopharmacology.org/GRAC/ObjectDisplayForward?objectId=494 were prepared similarly and have also been described previously (McHugh, Flemming, Xu, Perraud, & Beech, 2003). For experiments using transient co‐expression of TRPC1 and TRPC5, HEK cells at 40–60% confluency were transfected with pIRES2‐AcGFP1 and pIRES2‐DsRed‐Express2 plasmids containing human TRPC1 and TRPC5, respectively, using Lipofectamine 3000 (ThermoFisher Scientific, Yokohama, Japan). All experiments using transient expression were performed within 48 hr after transfection. A498 cells were cultured in Minimum Essential Medium containing Earle's salts (ThermoFisher Scientific, Loughborough, UK), supplemented with 10% FBS and penicillin–streptomycin (100 units per ml^−1, 100 μg·ml^−1; ThermoFisher Scientific, Loughborough, UK). CHO cells stably expressing http://www.guidetopharmacology.org/GRAC/ObjectDisplayForward?objectId=510 were maintained in Ham's Nutrient Mixture F12 (ThermoFisher Scientific, Loughborough, UK) supplemented with 10% FBS, penicillin–streptomycin, and 1 mg·ml^−1 G418 (InvivoGen, San Diego, California, USA). For experiments using hTRPC3 and hTRPC6, WT HEK 293 cells were transfected with hTRPC3 (Naylor et al., 2016) or hTRPC6 (cloned into pcDNA3) using jetPRIME® transfection reagent (VWR, Lutterworth, UK). […]

## Cn1c(=O)n(CCCO)c(=O)c2c1nc(Oc1ccc(Cl)c(OC(F)(F)F)c1)n2Cc1ccc(Cl)cc1 [AM237]
Cells overexpressing TRPC5 or TRPC5-SYFP2
  Concentration leading to a sustained increase in [Ca2+]i: ≥ 3 nM
hTRPC5, response at 250–295 s vs baseline, read-out: EC50, activation (increase in [Ca2+]i)
  EC50: 0.02 µM
hTRPC5 concentration–response curve
  Hill slope, activation: 1.7
Range over TRPC5 and TRPC5-SYFP2 experiments, read-out: EC50, TRPC5:C5 activation in [Ca2+]i assay (summary range)
  EC50: 0.015 to 0.02 µM and 0.01 to 0.02 µM
